Experimental data reported in patent publication US20100204243A1, “Process for the Preparation of Poly DL-Lactide-Co-Glycolide Nanoparticles Having Antitubercular Drugs Encapsulated Therein” (priority 2005, published 2010).
Values after ≈ are worked out from the molar mass of the structure shown.

Tests used:
[1] = Stability of ethambutol in the presence of isoniazid; format: physicochemical
From the text: 765/Del/2003. However, a disadvantage associated therewith is that due to its unstability properties, ethambutol would degrade.

M. tuberculosis = details: cited from earlier work

In the case of CC[C@@H](CO)NCCN[C@@H](CC)CO [ethambutol], the “stability in the presence of isoniazid” value [1] is given as “highly unstable” and the “minimum inhibitory concentration (MIC)” value (M. tuberculosis) is given as 1.5 µg/mL (≈ 7.34 µM).
